Laboratory results as given in patent publication US9067905B2, “Sulphone compounds and methods of making and using same” (Zafgen, Inc., priority 2009, dated 2015).

Biological target: T1, recombinant human MetAP2 (Homo sapiens, UniProt P50579)
T1 construct: Flag; made in house; host or cells: Sf9 insect cells
Experiment: Inhibition of recombinant human MetAP2 activity (Amplex red fluorescence assay)
Format: biochemical
Settings: manganese Flag-MetAP2, 0.75 mM Methionine-Alanine-Serine substrate, 30 minutes at 25° C., pH 7.5, 1% DMSO
Procedure: Compounds are tested for their capacity to inhibit recombinant human MetAP2 activity using the following assay.
Human recombinant Flag-MetAP2 expressed in Sf9 cells followed by affinity purification and EDTA treatment to remove endogenous active site cation is dialysed against MnCl2 to produce the manganese enzyme used in the assay. The assay is carried out for 30 minutes at 25° C. in 50 mM HEPES buffer containing 100 mM NaCl, pH 7.5 the presence of 0.75 mM Methionine-Alanine-Serine (MAS) substrate and 50 μg/ml amino acid oxidase using a dilution of purified MetAP2 giving approximately 50,000 RFU control activity. Cleavage of the substrate by MetAP2 and oxidation of free methionine by amino acid oxidase is detected and quantified using fluorescence generated by Amplex red (10-acetyl-3,7-dihydroxyphenoxazine) in combination with horseradish peroxidase which detects H2O2 released during the oxidation step. The fluorescent signal is detected using a multiwell fluorimeter. Compounds are diluted in DMSO prior to addition to assay buffer, the final DMSO concentration in the assay being 1%.
The IC50 is defined as the concentration at which a given compound achieves 50% inhibition of control. IC50 values are calculated using the XLfit software package (version 2.0.5).

T1 sequence (P50579 whole entry): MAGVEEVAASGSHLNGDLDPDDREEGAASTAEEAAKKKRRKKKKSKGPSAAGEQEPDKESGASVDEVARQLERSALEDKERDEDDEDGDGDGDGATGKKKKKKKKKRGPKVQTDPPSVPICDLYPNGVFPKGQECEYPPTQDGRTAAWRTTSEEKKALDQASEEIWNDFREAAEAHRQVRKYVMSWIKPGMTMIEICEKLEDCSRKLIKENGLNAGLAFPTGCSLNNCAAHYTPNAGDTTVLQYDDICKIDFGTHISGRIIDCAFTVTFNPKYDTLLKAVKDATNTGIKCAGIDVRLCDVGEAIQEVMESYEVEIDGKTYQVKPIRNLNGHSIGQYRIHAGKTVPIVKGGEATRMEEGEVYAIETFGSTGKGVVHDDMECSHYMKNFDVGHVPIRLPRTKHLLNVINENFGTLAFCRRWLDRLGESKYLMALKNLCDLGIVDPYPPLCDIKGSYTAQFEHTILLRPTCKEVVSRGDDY

IC50 [nM] | Compound
< 200 | CCN(CC)CCCNc1ccccc1S(=O)(=O)Cc1ccc(-c2ccoc2)c(OC)c1C(=O)O [6-[2-(3-Diethylaminopropylamino)benzenesulphonylmethyl]-3-(furan-3-yl)-2-methoxybenzoic acid]
< 200 | COc1c(-c2ccoc2)ccc(CS(=O)(=NC#N)c2ccccc2)c1C(=O)O (stereo not shown) [6-[(N-cyano-S-phenylsulphonimidoyl)methyl]-3-(furan-3-yl)-2-methoxybenzoic acid]
200 to 2000 | CCN(CC)C/C=C/c1ccccc1S(=O)(=O)Cc1ccc(-c2ccoc2)c(OC)c1C(=O)O [(E)-6-((2-(3-(diethylamino)prop-1-enyl)benzenesulfonyl)methyl)-3-(furan-3-yl)-2-methoxybenzoic acid]
< 200 | CCN(CC)C/C=C\c1cc(F)ccc1S(=O)(=O)Cc1ccc(-c2ccoc2)c(OCC#N)c1C(=O)O [(Z)-2-Cyanomethoxy-6-((2-(3-(Diethylamino)prop-1-enyl)-4-fluorobenzenesulfonyl)methyl)-3-(furan-3-yl)benzoic acid]
< 200 | COc1c(-c2ccoc2)ccc(CS(=O)(=O)c2ccccc2/C=C\CN2CCCCC2)c1C(=O)O [(Z)-3-(Furan-3-yl)-2-methoxy-6-((2-(3-(piperidin-1-yl)prop-1-enyl)benzenesulfonyl)methyl)benzoic acid]
< 200 | CCN(CC)C/C=C\c1cc(F)ccc1S(=O)(=O)Cc1ccc(-c2ccoc2)c(OC)c1C(=O)O [(Z)-6-((2-(3-(Diethylamino)prop-1-enyl)-4-fluorophenylsulfonyl)methyl)-3-(furan-3-yl)-2-methoxybenzoic acid]
< 200 | CCN(CC)C/C=C\c1ccccc1S(=O)(=O)Cc1ccc(-c2ccoc2)c(OC)c1C(=O)O [(Z)-6-((2-(3-(Diethylamino)prop-1-enyl)benzenesulfonyl)methyl)-3-(furan-3-yl)-2-methoxybenzoic acid]
